Four compounds from patent US12043602B2, “Fendiline derivatives” (The Board of Regents of the University of Texas System, priority 2019, dated 2024) can be followed below.

Several values for one entry are separate records, joined by “and”; a condition that tells them apart may be missing. Equal entries are not always repeated. Where two headings read alike, the source gives them in different places.

For assay [1], the system named is BxPC-3 (WT) pancreatic tumor cells. Nature of the assay: CyQUANT proliferation assay. In kind it is cell-based. To be noted: Homo sapiens. On the procedure: (§1) Madine Darby Canine Kidney epithelial cells (MDCK) stably co-expressing mGFP-tagged full length oncogenic mutant K-Ras (GFP—K-RASG12V) or mGFP-LactC2 (peptide probe for phosphatidylserine) and mCherry-tagged to the amino acids 179-189 of H-RasC181S, C184S (mCherry-CAAX, localizes primarily to endomembranes) were grown in DMEM-high glucose/sodium pyruvate/10% FBS. The medium was supplemented with 1× Penicillin/Streptomycin for fluorescence microscopy assays, to avoid any microbial contamination from the test compounds added. KLE and Hec50 cells were maintained in DMEM-F-12 medium supplemented with 10% FBS. Hec-1A and Hec-1B cells were grown in McCoy's 5a medium supplemented with 10% FBS. ESS-1 cells were grown in RPMI 1640 medium supplemented with 20% FBS. MPanc96 cells were grown in DMEM supplemented with 10% FBS, MiaPaCa-2 cells in DMEM supplemented with 10% FBS and 2.5% horse serum and all other cell lines were grown in RPMI 1640 supplemented with 10% FBS. All cancer cell media were supplemented with ×Penicillin/Streptomycin. All cell lines were grown at 37° C. with 5% CO2.
(§2) Cells were seeded in 96-well plates. After 24 h, fresh growth medium supplemented with 0.1% vehicle (DMSO), or various concentrations of drugs was added and cells were grown for 72 h. Cell numbers were quantified using the CyQUANT® Cell Proliferation Assay Kit (Molecular Probes, Life Technologies), according to the manufacturer's protocol. Fluorescence measurement was used as a measure of live cell number.

For assay [2], the system named is MOH (Mut) pancreatic tumor cells. Nature of the assay: CyQUANT proliferation assay. In kind it is cell-based. On the procedure:
as §1, §2

Assay [3] relates to NCI H522 (WT) lung tumor cells. Nature of the assay: CyQUANT proliferation assay. In kind it is cell-based. To be noted: Homo sapiens. On the procedure: as §1, §2
The subject of assay [4] is CaCO-2 (WT) colon tumor cells. Nature of the assay: CyQUANT proliferation assay. The class given is cell-based. To be noted: Homo sapiens. On the procedure: as §1, §2
The test system of assay [5] is Hec1A (Mut) endometrial tumor cells. Nature of the assay: CyQUANT proliferation assay. In kind it is cell-based. The conditions noted are these: Homo sapiens, HEC-1-A. On the procedure: as §1, §2
The test system of assay [6] is Hec1B (Mut) endometrial tumor cells. Nature of the assay: CyQUANT proliferation assay. To be noted: Homo sapiens, HEC-1B. The class given is cell-based. On the procedure:
as §1, §2

Assay [7] concerns NCI-H1299 (WT) lung tumor cells. Nature of the assay: CyQUANT proliferation assay. The class given is cell-based. The conditions noted are these: Homo sapiens. On the procedure:
as §1, §2

Assay [8] deals with SK-CO-1 (Mut) colon tumor cells. Nature of the assay: CyQUANT proliferation assay. The class given is cell-based. The conditions noted are these: Homo sapiens. On the procedure: as §1, §2
For assay [9], the system named is NCI-H23 (Mut) lung tumor cells. Nature of the assay: CyQUANT proliferation assay. In kind it is cell-based. To be noted: Homo sapiens. On the procedure: as §1, §2
Assay [10] concerns Ishikawa (WT) endometrial tumor cells. Nature of the assay: CyQUANT proliferation assay. In kind it is cell-based. The arrangement: key to IC50 proliferation Ishikawa (WT): NE—Not efficacious. To be noted: for IC50: Homo sapiens, Ishikawa. On the procedure:
as §1, §2

The test system of assay [11] is sphingomyelin (SM) in MiaPaCa-2 tumor sections. Nature of the assay: Lysenin (GFP-Lys) staining of tumor sections. In kind it is in vivo, nu/nu mice. The conditions noted are these: 12.5 mg/kg. On the procedure: Lysenin Staining of Tumor Sections. To label intracellular SM, 3 μm thick cryosections, fixed in 4% paraformaldehyde and quenched in 0.1 M NH4Cl, were permeabilized with 0.5% saponin before overnight incubation (4° C.) with MBP-GFP Lysenin (50 μg/mL) in PBS with 0.5% saponin containing DAPI (5 ng/mL). Samples mounted in FluorSave were photographed in the Nikon AIR Confocal Laser Microscope. GFP-Lysenin binding was quantitated using NIS
Elements BR analysis ver. 4.13.04. The average value obtained in the negative control pictures (background) was subtracted from each of the GFP pictures (n=20).
To determine if the reduction in tumor growth elicited by the compounds were mediated by inhibition of ASM, we stained the tissue sections for SM using a non-toxic recombinant fragment of lysenin tagged with GFP (GFP-Lys). In DMSO-treated tumor sections, weak GFP-Lys staining was observed. […] We also observed that the blood vessels were dilated in compound 6 treated tumors, whereas the blood vessel diameters were not changed in compound 12h (NY0331) and 22 (NY0335) treated tumors (FIG. 8E).

Assay [12] has as its target mGFP-K-RASG12V (Homo sapiens (Human), UniProt P01116, G12V). Nature of the assay: K-Ras mislocalization assay (confocal microscopy, Manders coefficient). The class given is cell-based. On the set-up: key to Emax: Manders coefficient: fraction of mCherry-CAAX co-localizing with GFP-K-Ras. To be noted: for IC50 / Emax: MDCK cells; for Emax: maximal effect, Manders coefficient. In a few lines:
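Readout is the Manders coefficient: share of mCherry-CAAX overlapping mGFP-K-RASG12V in confocal images, proportional to K-Ras mislocalization. Stable MDCK co-expressing lines were exposed 48 h to various drug concentrations or 0.1% DMSO vehicle, then paraformaldehyde-fixed.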

The mark [13] stands for this setting: BXPC-3, 72 h, read-out: IC50 proliferation BxPC-3 (WT).
[14] abbreviates: BXPC-3, Table 11, pancreatic, read-out: IC50 (μM) BxPC-3 (WT).
The mark [15] stands for this setting: 72 h, read-out: IC50 proliferation MOH (Mut).
[16] abbreviates: Table 11, pancreatic, read-out: IC50 (μM) MOH (Mut).
[17] abbreviates: NCI-H522, 72 h, read-out: IC50 proliferation NCI H522 (WT).
[18] abbreviates: NCI-H522, Table 11, lung, read-out: IC50 (μM) NCI H522 (WT).
Where [19] appears, read: Caco-2, 72 h, read-out: IC50 proliferation CaCO-2 (WT).
Setting [20] is: Caco-2, Table 11, colon, read-out: IC50 (μM) Caco-2 (WT).
The mark [21] stands for this setting: 72 h, read-out: IC50 proliferation Hec1A (Mut).
Where [22] appears, read: Table 11, endometrial, read-out: IC50 (μM) Hec1A (Mut).
Where [23] appears, read: 72 h, read-out: IC50 proliferation Hec1B (Mut).
Setting [24] is: Table 11, endometrial, read-out: IC50 (μM) Hec1B (Mut).
Setting [25] is: NCI-H1299, 72 h, read-out: IC50 proliferation NCI-H1299 (WT; N Mut in Table 6).
[26] abbreviates: NCI-H1299, Table 11, lung, read-out: IC50 (μM) NCI H1299 (WT).
The mark [27] stands for this setting: SK-CO-1, 72 h, read-out: IC50 proliferation SK-CO-1 (Mut).
Setting [28] is: SK-CO-1, Table 11, colon, read-out: IC50 (μM) SK-CO-1 (Mut).
Where [29] appears, read: NCI-H23, 72 h, read-out: IC50 proliferation NCI-H23 (Mut).
The mark [30] stands for this setting: NCI-H23, Table 11, lung, read-out: IC50 (μM) NCI H23 (Mut).
Where [31] appears, read: Table 11, endometrial, read-out: IC50 (μM) Ishikawa (WT).
Setting [32] is: 48 h treatment, read-out: IC50 (μM), KRASG12V mislocalization.

`CC(NCCC(c1ccccc1)c1ccccc1)c1ccccc1` (stereo not shown) [Fendiline]: the IC50 was found to be 28.6 µM in assay [1] (setting [13]); 28.6 ± 5.9 µM in [1] (setting [14]); 11.1 µM in assay [2] (setting [15]); 11.1 µM in [2] (setting [16]); 29.6 µM in assay [3] (setting [17]); 29.6 ± 1.2 µM in assay [3] (setting [18]). Also, the IC50 in assay [4] (setting [19]) came out at 15.4 µM; in assay [4] (setting [20]), 14.5 µM; in assay [5] (setting [21]), 9.48 µM; in [5] (setting [22]), 9.48 µM; in [6] (setting [23]), 9.8 µM; in [6] (setting [24]), 9.8 µM. Moreover, the IC50 turned out to be 24.2 µM in [7] (setting [25]); 24.3 ± 2.1 µM in assay [7] (setting [26]); 7.77 µM in assay [8] (setting [27]); 7.8 µM in [8] (setting [28]); 11.4 µM in assay [9] (setting [29]); 11.4 ± 1 µM in [9] (setting [30]). Further, the IC50 in assay [10] (setting [31]) was more than 30 µM. Further, the “IC50 proliferation Ishikawa (WT)” value in assay [10] (72 h) is given as “NE”. Besides, in assay [11], the “GFP-Lys staining (SM) of tumor sections” value was “significantly increased”.

Take `COc1ccc([C@@H](C)N(CC=C(c2ccccc2)c2ccccc2)CCN2CCN(C)CC2)cc1` [NY0244, (R)-N-(1-(4-methoxyphenyl)ethyl)-N-(2-(4-methylpiperazin-1-yl)ethyl)-3,3-diphenylprop-2-en-1-amine]: the IC50 amounted to 0.1 µM in assay [12] (setting [32]); 5.73 µM in assay [1] (setting [13]); 5.7 µM in assay [1] (setting [14]); 3.67 µM in assay [2] (setting [15]); 3.7 µM in [2] (setting [16]); 28.2 µM in assay [3] (setting [17]). Also, the IC50 in [3] (setting [18]) is 28.2 µM; in assay [4] (setting [19]), 5.1 µM; in assay [4] (setting [20]), 5.1 µM; in assay [5] (setting [21]) it was 2.6 µM; in assay [5] (setting [22]) it was 2.6 µM; in [6] (setting [23]), 3.28 µM. In addition, the IC50 is 3.3 µM in assay [6] (setting [24]); 8.24 µM in assay [7] (setting [25]); 8.2 µM in assay [7] (setting [26]); 3.28 µM in [8] (setting [27]); 3.3 µM in assay [8] (setting [28]); 3.81 µM in assay [9] (setting [29]). Also, the IC50 in assay [9] (setting [30]) is 3.8 µM; in assay [10] (setting [31]) it was more than 30 µM. The Emax in [12] (48 h) was 0.75 ± 0.01; in assay [12] (48 h, listed as 12f) it was 0.75 and 0.75 ± 0.01. Besides, the “fold increase in KRAS mislocalization potency” value in [12] (versus hit 7) is recorded as 5 fold. In assay [10] (72 h), the “IC50 proliferation Ishikawa (WT)” value was “NE”.

Consider `COc1ccc([C@@H](C)N(CC=C(c2ccccc2)c2ccccc2)CCN2CCCC2)cc1` [NY0331, (R)-N-(1-(4-methoxyphenyl)ethyl)-3,3-diphenyl-N-(2-(pyrrolidin-1-yl)ethyl)prop-2-en-1-amine], for which the results for the IC50 in assay [12] (setting [32]), in [2] (setting [15]) and in assay [2] (setting [16]) were 0.3 µM, 3.55 µM and 4 µM, respectively. The Emax in assay [12] (48 h) amounted to 0.85 ± 0.04. Moreover, the “fold potency loss / decreased potency” value in assay [12] (versus 12f (NY0244)) is 3 fold. The “GFP-Lys staining (SM) of tumor sections” value in [11] was “significantly increased”.

`COc1ccc([C@@H](C)N(CC=C(c2ccccc2)c2ccccc2)CCCN2CCN(C)CC2)cc1` [NY0335, (R)-N-(1-(4-methoxyphenyl)ethyl)-N-(3-(4-methylpiperazin-1-yl)propyl)-3,3-diphenylprop-2-en-1-amine]: the IC50 in assay [12] (48 h, read-out: KRAS mislocalization potency) was 0.02 µM; in assay [12] (setting [32]), 0.02 µM; in assay [1] (setting [13]), 5.34 µM; in assay [1] (setting [14]), 5.3 µM; in [2] (setting [15]) it was 3.77 µM; in [2] (setting [16]) it was 3.8 µM. The IC50 amounted to 23.5 µM in assay [3] (setting [17]); 23.5 ± 3.2 µM in [3] (setting [18]); 4.43 µM in assay [4] (setting [19]); 4.4 µM in [4] (setting [20]); 2.34 µM in assay [5] (setting [21]); 2.3 µM in [5] (setting [22]). In addition, the IC50 was found to be 3.89 µM in assay [6] (setting [23]); 3.9 µM in assay [6] (setting [24]); 8.12 µM in assay [7] (setting [25]); 8.2 ± 1 µM in assay [7] (setting [26]); 3.52 µM in assay [8] (setting [27]); 3.5 µM in assay [8] (setting [28]). The IC50 in [9] (setting [29]) is 4.14 µM; in assay [9] (setting [30]) it was 4.1 µM; in [10] (72 h, read-out: IC50 proliferation Ishikawa (WT)), 11 µM; in [10] (setting [31]), 11 µM. The Emax in assay [12] (48 h, listed as 22) is on record as 0.81; in assay [12] (48 h, listed as NY335), 0.81 ± 0.01. Further, in [11], the “GFP-Lys staining (SM) of tumor sections” value is “did not enhance GFP-Lys staining”.
